In patent US20060134212A1, “Lercanidipine immediate release compositions” (Forest Laboratories, Inc., priority 2004, published 2006):

Legend:
[1] = species not given; cited from earlier work
Caco-2 cell monolayers = test: Caco-2 cell analysis: lercanidipine permeation with different concentrations of Polysorbate 80 (Tween 80); type: in vitro ADME
From the text: The objective of this study was to investigate the effects of surfactant on the permeability characteristics of lercanidipine across Caco-2 cell monolayers. Caco-2 cell monolayers have been used as a model of intestinal mucosa for predicting oral drug absorption (P. Artursson. Epithelial transport of drugs in cell culture. I: A model for studying the passive diffusion of drugs over intestinal absorptive (Caco-2) cells. JPharm (1990)).
Transport experiments for the permeation characteristics of lercanidipine in the presence of different concentrations of Polysorbate 80 (Tween 80) were conducted as follows. […] The samples were collected and analyzed for lercanidipine.
The permeation characteristics lercanidipine across Caco-2 cell monolayers in the presence of different concentrations of Tween 80 were analyzed using four dosing solutions. […]
Papp values will be calculated using the equation: Papp=ΔQ/Δt/(A*C0) where ΔQ/Δt is the linear appearance rate of mass in the receiver solution, A is the filter/cell surface area (1 cm^2 for 12-well system), and C0 is the initial concentration of the test compounds.

[2] = cited from earlier work
Caco-2 cell = Caco-2 cell apparatus; cited from earlier work
[3] = cited from earlier work; remark: listed apart in the source

Compound | plasma concentration (AUCo-t), Form II compared to Form I [1] | time to maximum concentration (Tmax), one form compared to the other [1] | increase in Caco-2 permeability upon the addition of surfactant (Caco-2 cell monolayers; 50 μg/ml Lerc in HBSS, pH 6.8, Tween 80 added vs none) | change of Caco-2 permeability at higher surfactant (Caco-2 cell monolayers; surfactant in transport buffer increased ten fold from 0.02 to 0.2) | solubility ([2]; at pH 5 and above) | aqueous solubility ([2]; water) | Papp (Caco-2 cell) | time of peak plasma level following dosage ([3]; oral administration) [h] | increase of amount of lercanidipine absorbed with food ([3]; simultaneous intake of food (especially high fat) vs administration without food)
COC(=O)C1=C(C)NC(C)=C(C(=O)OC(C)(C)CN(C)CCC(c2ccccc2)c2ccccc2)C1c1cccc([N+](=O)[O-])c1.Cl (stereo not shown) [Form II] | higher plasma concentration | delayed time of maximum concentration | – | – | – | – | – | – | –
COC(=O)C1=C(C)NC(C)=C(C(=O)OC(C)(C)CN(C)CCC(c2ccccc2)c2ccccc2)C1c1cccc([N+](=O)[O-])c1.Cl (stereo not shown) [Form I] | – | shorter time to maximum concentration | – | – | – | – | – | – | –
COC(=O)C1=C(C)NC(C)=C(C(=O)OC(C)(C)CN(C)CCC(c2ccccc2)c2ccccc2)C1c1cccc([N+](=O)[O-])c1 (stereo not shown) [lercanidipine, methyl 1,1,N-trimethyl-N-(3,3-diphenylpropyl)-2-aminoethyl 1,4-dihydro-2,6-dimethyl-4-(3-nitrophenyl)pyridine-3,5-dicarboxylate] | – | – | three fold increase in permeability | permeability of lercanidipine decreases | less than 20 μg/ml | about 5 μg/ml | about 0.5×10^−7 cm/s | 1 to 3 | between three and four times
